Like-named read-outs stand apart in the source and are kept apart here.
Tests used:
in vitro [1] = conditions: PAMPA
Description: Subsequently, the drug concentration of the portion corresponding to the cell membrane inside (acceptor) is obtained by HPLC or UV spectroscopy, from which the membrane permeability of the corresponding drugs is calculated.

in vitro [2] = type: in vitro ADME; conditions: for Papp: not told, read-out: Permeability according to examples
Description: A DOPC lipid dissolved in chloroform and commercially available was collected in a glass vial, and chloroform was removed by blowing nitrogen.
The lipid film was left in the glass vial, to which the organic phase (1:1 (v/v) mixture of squalane and silicone oil (AR20)) was added, and then sonication was performed for 10-15 minutes to uniformly disperse the lipid in the oil.
Finally, an oil solution in which the lipid was dissolved (DOPC concentration: 4 mg/ml) was obtained.
Then, distilled water was added to a UV cuvette and the prepared lipid solution was added thereon.
At this time, the process of producing the lipid bilayer was performed by adding a small amount of fluorescently labeled lipid and observing it through a fluorescence microscope.
At this time, a magnetic stirring bar is placed under the UV cuvette and the lower water layer is continuously stirred during the measurement. This makes it unnecessary to consider the time when the drug passes through the lipid bilayer and diffuses to the area irradiated with UV.
The R2 value was calculated in order to determine how well the concentration and absorbance correlate at each wavelength, and the wavelength at which this value exceeds 0.99 was irradiated in the experiment.
More specifically, in FIG. 3, CA(t) means the concentration of an acceptor solution over time (where the first aqueous phase is located under the cuvette, where the drug reaches through the first lipid bilayer) and Ceq means the equilibrium concentration of the acceptor solution droplet (serving as a donor solution to provide a drug), and the acceptor solution, and is calculated by the following General Formula 1. Ceq=CD(0)VD/(VD+VA) [General Formula 1]
In General Formula 1, VA and VD are respectively the volume of a first aqueous phase (acceptor) and the volume of a second aqueous phase (donor, droplet), and CD(0) represents the drug concentration of the initial aqueous solution droplet.

[3] = DOPC lipid bilayer, organic phase 1:1 (v/v) squalane and silicone oil (AR20), 1 μl donor droplet, real-time UV absorbance of stirred acceptor water layer

Row | Papp (in vitro [1]) | Papp (in vitro [2]; [3]) | Papp (in vitro [2]) | Permeability to the lipid bilayer (in words) (in vitro [2]; DOPC lipid bilayer, method of the example) | Compound
1 | 3.5 ×10⁻⁶ cm/s | 113 ×10⁻⁶ cm/s |  |  | CC(=O)Nc1ccc(O)cc1 [Acetaminophen]
2 |  |  | 200 ×10⁻⁶ cm/s |  | Cc1cc(=O)n(-c2ccccc2)n1C [Antipyrine]
3 |  | 7.2 ×10⁻⁶ cm/s |  | very low permeability | CN/C(=N/CCSCc1nc[nH]c1C)NC#N [Cimetidine]

Row | Compound | Papp (in vitro [1]) | Papp (in vitro [2]; [3]) | Papp (in vitro [2]) | Permeability to the lipid bilayer (in words) (in vitro [2]; DOPC lipid bilayer, method of the example)
4 | Cn1c(=O)c2c(ncn2C)n(C)c1=O [Caffeine] |  | 248 ×10⁻⁶ cm/s |  | 

Reference: patent US11293911B2, “Multi-phase liquid composition, device for measuring permeability of drugs, and method for measuring permeability of drugs” (priority 2017, dated 2022)
